Data reported in US20220023381A1, “VDAC INHIBITORS FOR TREATING AUTOIMMUNE DISEASES” (NATIONAL INSTITUTE FOR BIOTECHNOLOGY IN THE NEGEV LTD., priority 2018, published 2022).
No end group written: not given here.

Columns and labels:
[1] = system: mtDNA (120 bp); test: mtDNA-peptide binding (pull-down) assay; design: species or system mouse; settings: biotinylated peptide, Streptavidin Dynabeads
Source text: C-terminal biotinylated peptides corresponding to amino acid residues from 1 to 26 of mouse VDAC1 (SEQ ID NO:1) and a mutant peptide (SEQ ID NO:72) with acetylation (N-terminus) and amidation (C-terminus) were synthesized and purified by Genscript (Piscataway, N.J., USA). Mitochondrial DNA was amplified using PCR with mtDNA specific primer of the D-loop region. The primers used were as follow (5′-3′): mtDNA 120 bp forward (SEQ ID NO:73), and reverse (SEQ ID NO:74). Purified mtDNA (120 bp) was incubated rotating end-over-end with peptides and Streptavidin Dynabeads (Invitrogen) for 18 h at 4° C. The peptides were captured by the Streptavidin Dynabeads, and unbound peptides and free mtDNA were removed by extensive washing with PBS. The samples were treated with proteinase K for 30 min at 60° C., and the mtDNA in the supernatant was purified with QIAquick Nucleotide Removal Kit (Qiagen). The purified mtDNA was quantified using real-time RT-PCR with the D-loop3 primers.

[2] = system: EndoG−/− MEFs; test: ISG expression in EndoG−/− MEFs (real-time PCR / western blot); type: cell-based, mouse
Experimental: Total RNA was extracted using RNeasy Plus Mini Kit (Qiagen) according to the manufacturer's instructions. The first-strand cDNA was synthesized from 2 μg purified mRNA using Accupower RT PreMix (BioNeer). The reaction mixtures were incubated at 42° C. for 60 min and 94° C. for 5 min. Real-time RT-PCR was performed using the LightCycler 96 system (Roche Life Science) with SYBR Green master mix (Roche). The primers used were as follow (5′-3′): EndoG forward (SEQ ID NO:36), and reverse (SEQ ID NO:37); Cxcl10 forward (SEQ ID NO:38), and reverse (SEQ ID NO:39); GAPDH forward (SEQ ID NO:40), and reverse (SEQ ID NO:41); Ifi44 forward (SEQ ID NO:42), and reverse (SEQ ID NO:43); Ifit1 forward (SEQ ID NO:44), and reverse (SEQ ID NO:45); Ifit3 forward (SEQ ID NO:46), and reverse (SEQ ID NO:47); IFNα4 forward (SEQ ID NO:48), and reverse (SEQ ID NO:49); IFNβ forward (SEQ ID NO:50), and reverse (SEQ ID NO:51); Iigp1 forward (SEQ ID NO:52), and reverse (SEQ ID NO:53); ISG15 forward (SEQ ID NO:54), and reverse (SEQ ID NO:55); Oasl2 forward (SEQ ID NO:56), and reverse (SEQ ID NO:57); Rsad2 forward (SEQ ID NO:58), and reverse (SEQ ID NO:59); USP18 forward (SEQ ID NO:60), and reverse (SEQ ID NO:61); VDAC1 forward (SEQ ID NO:62), and reverse (SEQ ID NO:63). GAPDH was used as an internal standard of mRNA expression, and the ratio of the target gene expression to GAPDH expression was calculated using LightCycler 96 Instrument software (Roche). The quality of real-time RT-PCR results was evaluated based on the melting temperature (Tm) of a DNA fragment and melting curve analysis.

[3] = system: VDAC1/3−/− MEFs; test: ISG expression in VDAC1/3−/− MEFs; type: cell-based, mouse; settings: treatment with Ca2+ chelator BAPTA
Experimental: (§1) The following mouse embryonic fibroblasts (MEFs) were used: VDAC1/3^−/− (MEFs) and Bak/Bax^−/− MEFs with the respective WT counterparts; WT and cGAS^−/− MEFs; WT and IRF3/IRF7^−/− MEFs; and WT and MICU1^−/− MEFs. All MEFs were grown in complete Dulbecco's modified Eagle's medium (DMEM, Corning) supplemented with 10% fetal bovine serum (FBS, Sigma-Aldrich) and 1% penicillin and streptomycin (antibiotics, Gibco) at 37° C. with 5% CO2. LMTK-1 cells were grown in complete RPMI 1640 medium (Gibco) supplemented with 10% FBS and antibiotics. The LMTK^−-derived cell line lacking mtDNA (ρ^o), LMEB-4, was grown in LMTK-1 growth medium supplemented with uridine (50 μg/ml, Sigma-Aldrich) and sodium pyruvate (1 mM, Gibco). WT (ρ^o) and EndoG^−/− (ρ^o) MEFs were generated by incubation with ethidium bromide (Invitrogen) in complete DMEM supplemented with 15% FBS, antibiotics, uridine (50 μg/ml), and pyruvate (1 mM) for 5 months.
(§2) Total RNA was extracted using RNeasy Plus Mini Kit (Qiagen) according to the manufacturer's instructions. […] GAPDH was used as an internal standard of mRNA expression, and the ratio of the target gene expression to GAPDH expression was calculated using LightCycler 96 Instrument software (Roche). The quality of real-time RT-PCR results was evaluated based on the melting temperature (Tm) of a DNA fragment and melting curve analysis.

[4] = system: TFAM^KD MEFs; test: ISG expression in TFAM KD MEFs; type: cell-based, mouse
Experimental: as §1, with “months. […]” for “months.”
as §2, with “analysis. […]” for “analysis.”

[5] = system: LMEB-4 (ρ0) cells; test: Ifi44 expression in LMEB-4 (ρ0) cells lacking mtDNA; type: cell-based; settings: 100 μM DIDS
Experimental: as §1, §2

[6] = system: mitochondria from MICU1−/− MEFs; test: mtDNA release from isolated mitochondria of MICU1−/− MEFs; design: species or system mouse; settings: buffer lacking Ca2+, with or without DIDS
Experimental: Therefore, it was postulated that VDAC may be increasing mtDNA release in living cells merely by increasing mitochondrial Ca^2+ and promoting PTP formation. To examine this possibility, mitochondria from MICU1^−/− MEFs, which already have elevated Ca^2+ and ROS levels (FIG. 6F), were isolated and incubated in a buffer lacking Ca^2+ either with or without DIDS.

[7] = system: MICU1−/− MEFs; test: ISG induction in MICU1−/− MEFs; type: cell-based, mouse; settings: treatment with DIDS
Experimental: as §1, §2

[8] = system: LMTK-1 (WT) cells; test: Ifi44 expression in LMTK-1 (WT) cells; type: cell-based; settings: 100 μM DIDS
Experimental: as §1, §2

[9] = system: 143B cells; test: Quantification of fimtDNA (free intra-mtDNA fragments); type: cell-based
Experimental: For the quantification of fimtDNA release, 143B cells were resuspended in mitochondrial isolation buffer and subsequently homogenized 30 times with pestle B (small clearance). The homogenized samples were centrifuged at 1,000 g for 10 min at 4° C. The supernatant was transferred to a new tube and centrifuged at 1,000 g for 5 min at 4° C., and the mitochondrial pellet was collected after the centrifugation of the final supernatant at 11,500 g for 10 min at 4° C. Isolated mitochondria were resuspended in 50 μl CSK buffer containing 10 mM PIPES pH 6.8, 300 mM sucrose, 100 mM NaCl, 3 mM MgCl2, 1 mM EGTA, and 0.05% Triton X-100, for 5 min on ice, and the supernatant (fimtDNA) and CSK-pellet fractions were collected after centrifugation at 17,000 g for 30 min at 4° C. A 1:20 dilution of CSK-sup was used for real-time PCR with fimtDNA primers in each reaction. The primers used were as follow (5′-3′): hfimtNDA forward (SEQ ID NO:70), and reverse (SEQ ID NO:71). CSK-pellet was resuspended in 100 μl lysis buffer containing 20 mM EDTA and proteinase K and incubated at 56° C. overnight. The digested pellet was diluted with water (1:20 to 1:100) and heated at 95° C. for 20 min to inactivate proteinase K, and the CSK-pellet fraction was used for real-time PCR in each reaction. The fimtDNA in CSK-sup was normalized to the mtDNA in CSK-pellet.

[10] = system: EndoG−/− MEFs; test: ROS levels in EndoG−/− MEFs; type: cell-based, mouse; settings: Mito-TEMPO (10 μM), 3 days
Experimental: Cellular cGAMP levels were measured by LC/MS (Agilent Technologies) using 5% perchloric acid extracts of WT and EndoG^−/− MEFs. Intracellular ROS production in MEFs was measured using the oxidative stress indicator CM-H2DCFDA (Invitrogen) with flow cytometry (FACS). Mitochondrial ROS in MEFs was evaluated using the mitochondrial superoxide indicator MitoSOX (Invitrogen) with a confocal microscope (LSM880, Zeiss, and the fluorescence intensity was measured using Zen software (Zeiss). To quantify mitochondrial ROS in human PBMCs, the cells were obtained from heparinized blood using a Ficoll-Paque gradient. The cells were washed with PBS, resuspended in RPMI 1640 medium, and transferred to 96-well plates. Subsequently, the cells were stimulated with calcium ionophore A23187 (25 μM), VBIT-4 (5 μM), and MitoSOX (2 μM) (Life Technologies). After 1 h at 37° C., the fluorescence was measured at 510/595 nm using a microplate reader (Synergy HTX; BIOTEK). Cells without dye were used as the blank control.

[11] = treatment with Ca2+ chelator BAPTA
[12] = DIDS (100 μM), real-time PCR and western blot

Q: How did the “pull-down of mtDNA fragment” value [1] turn out when “26 amino acid VDAC1 N-terminal peptide: C-terminal biotinylated peptide corresponding to amino acid residues 1 to 26 of mouse VDAC1 (MAVPPTYADLGKSARDVFTKGYGFGL-biotin)” was run?
A: pulled-down the mtDNA fragment in dose-dependent manner

Q: With `O=C(O)CN(CC(=O)O)c1ccccc1OCCOc1ccccc1N(CC(=O)O)CC(=O)O` [BAPTA] as the compound, how does the ISG expression [2, 11] read?
A: decreased

Q: And the ISG expression [3]?
A: not

Q: What about the ISG expression [4, 11] of the same compound?
A: decreased

Q: For `O=S(=O)(O)c1cc(N=C=S)ccc1C=Cc1ccc(N=C=S)cc1S(=O)(=O)O` [DIDS, 4,4′-Diisothiocyanatostilbene-2,2′-disulfonate], which “ISG (Ifi44) expression” value [5] is on record?
A: not

Q: What about the “mtDNA released during incubation” value [6] of the same compound?
A: decreased in a concentration-dependent manner

Q: What about the ISG expression [2, 12] of the same compound?
A: inhibited

Q: What about the ISG induction [7] of the same compound?
A: abrogated

Q: And the “ISG (Ifi44) expression” value [8]?
A: inhibited

Q: And the ISG expression [4, 12]?
A: inhibited

Q: For `CO[C@H]1C[C@@H]2CC[C@@H](C)[C@@](O)(O2)C(=O)C(=O)N2CCCC[C@H]2C(=O)O[C@H]([C@H](C)C[C@@H]2CC[C@@H](OCCO)[C@H](OC)C2)CC(=O)[C@H](C)/C=C(\C)[C@@H](O)[C@@H](OC)C(=O)[C@H](C)C[C@H](C)/C=C/C=C/C=C/1C` [everolimus], which fimtDNA ([9]; 100 nM everolimus) is on record?
A: decreased

Q: With `CC1(C)CC(NC(=O)C[P+](c2ccccc2)(c2ccccc2)c2ccccc2)CC(C)(C)N1[O]` [mito-TEMPO] as the compound, how does the ISG expression ([2]; Mito-TEMPO (10 μM), 3 days) read?
A: reduced

Q: And the mROS [10]?
A: reduced

Q: And the fimtDNA ([9]; 50 nM mito-TEMPO)?
A: decreased

Q: For “VDAC1 N-terminal mutant peptide: VDAC1 N-terminal peptide in which K12, R15, K20 were changed to Ala (MAVPPTYADLGASAADVFTAGYGFGL)”, which “pull-down of mtDNA fragment” value [1] is on record?
A: not
